In ChEMBL document CHEMBL4507268 (2021):

Columns and labels:
Conditions in all cases: Compound concentration 1000.0 nM
[1] = system: ALK tyrosine kinase receptor (Homo sapiens), Q9UM73 [C1156Y]
[2] = molecular target: T1, Discoidin domain-containing receptor 2 (Homo sapiens) (UniProt Q16832)
T1 sequence (whole entry): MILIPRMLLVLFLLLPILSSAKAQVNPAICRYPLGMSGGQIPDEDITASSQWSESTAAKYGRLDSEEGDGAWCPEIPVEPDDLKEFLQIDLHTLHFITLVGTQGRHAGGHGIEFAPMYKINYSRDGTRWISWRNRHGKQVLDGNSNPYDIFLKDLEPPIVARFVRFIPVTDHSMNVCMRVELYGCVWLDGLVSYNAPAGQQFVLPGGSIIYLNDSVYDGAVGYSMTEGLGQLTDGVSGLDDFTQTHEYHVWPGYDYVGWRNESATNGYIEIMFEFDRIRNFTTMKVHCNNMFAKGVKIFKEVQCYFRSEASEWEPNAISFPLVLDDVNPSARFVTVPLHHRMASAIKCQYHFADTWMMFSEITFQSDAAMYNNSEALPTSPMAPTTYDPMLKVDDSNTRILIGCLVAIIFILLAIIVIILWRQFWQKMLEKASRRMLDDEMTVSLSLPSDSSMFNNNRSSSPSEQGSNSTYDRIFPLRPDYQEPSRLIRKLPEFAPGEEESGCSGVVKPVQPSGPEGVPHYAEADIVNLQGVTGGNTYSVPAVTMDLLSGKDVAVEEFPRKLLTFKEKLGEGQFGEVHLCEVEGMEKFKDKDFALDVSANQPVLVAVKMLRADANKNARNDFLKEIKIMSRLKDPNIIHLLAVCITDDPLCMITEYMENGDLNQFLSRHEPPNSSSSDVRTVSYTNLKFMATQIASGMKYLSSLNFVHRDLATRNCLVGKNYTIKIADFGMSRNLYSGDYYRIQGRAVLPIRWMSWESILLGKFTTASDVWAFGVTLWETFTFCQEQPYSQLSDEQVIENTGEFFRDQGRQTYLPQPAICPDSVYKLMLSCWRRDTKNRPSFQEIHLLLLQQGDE

[3] = molecular target: T2, Muscle, skeletal receptor tyrosine-protein kinase (Homo sapiens) (UniProt O15146)
T2 sequence (whole entry): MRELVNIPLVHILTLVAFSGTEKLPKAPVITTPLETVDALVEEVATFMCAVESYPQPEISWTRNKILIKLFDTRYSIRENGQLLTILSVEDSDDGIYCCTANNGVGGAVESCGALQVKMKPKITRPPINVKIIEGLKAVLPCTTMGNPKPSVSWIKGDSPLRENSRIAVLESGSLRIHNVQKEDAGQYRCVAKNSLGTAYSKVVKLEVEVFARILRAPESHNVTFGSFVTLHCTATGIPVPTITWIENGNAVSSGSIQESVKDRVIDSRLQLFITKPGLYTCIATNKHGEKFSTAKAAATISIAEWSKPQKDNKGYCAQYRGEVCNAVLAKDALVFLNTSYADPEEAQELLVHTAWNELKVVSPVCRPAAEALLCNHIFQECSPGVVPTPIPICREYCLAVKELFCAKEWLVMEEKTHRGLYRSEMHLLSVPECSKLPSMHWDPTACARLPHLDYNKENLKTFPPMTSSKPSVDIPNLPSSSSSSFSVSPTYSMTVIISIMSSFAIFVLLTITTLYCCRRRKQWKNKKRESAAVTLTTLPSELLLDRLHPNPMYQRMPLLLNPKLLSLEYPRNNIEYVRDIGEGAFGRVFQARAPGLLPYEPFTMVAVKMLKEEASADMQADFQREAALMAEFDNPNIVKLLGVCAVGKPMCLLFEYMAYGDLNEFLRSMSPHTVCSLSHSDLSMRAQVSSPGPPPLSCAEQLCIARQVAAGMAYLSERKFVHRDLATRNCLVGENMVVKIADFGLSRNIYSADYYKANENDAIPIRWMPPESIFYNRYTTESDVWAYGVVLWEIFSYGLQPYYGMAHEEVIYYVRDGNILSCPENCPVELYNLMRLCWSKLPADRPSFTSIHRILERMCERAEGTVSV

[4] = system: ALK tyrosine kinase receptor (Homo sapiens), Q9UM73 [L1196M]
[5] = molecular target: T3, Serine/threonine-protein kinase Sgk1 (Homo sapiens) (UniProt O00141)
T3 sequence (whole entry): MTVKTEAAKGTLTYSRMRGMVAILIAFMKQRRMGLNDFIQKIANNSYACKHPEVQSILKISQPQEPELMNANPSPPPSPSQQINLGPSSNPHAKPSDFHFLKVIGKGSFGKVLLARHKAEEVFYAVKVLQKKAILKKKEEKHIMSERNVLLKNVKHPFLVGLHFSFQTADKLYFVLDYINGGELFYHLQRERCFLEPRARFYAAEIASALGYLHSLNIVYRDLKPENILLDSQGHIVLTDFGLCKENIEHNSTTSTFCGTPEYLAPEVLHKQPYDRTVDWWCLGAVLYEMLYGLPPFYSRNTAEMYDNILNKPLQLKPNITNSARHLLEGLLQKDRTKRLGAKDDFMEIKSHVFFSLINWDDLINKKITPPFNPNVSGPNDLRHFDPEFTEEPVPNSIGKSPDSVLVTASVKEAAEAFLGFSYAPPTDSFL

[6] = molecular target: Serine/threonine-protein kinase tousled-like 2 (Homo sapiens) (UniProt Q86UE8)
[7] = molecular target: Homeodomain-interacting protein kinase 3 (Homo sapiens) (UniProt Q9H422)
[8] = molecular target: High affinity nerve growth factor receptor (Homo sapiens) (UniProt P04629)
[9] = molecular target: T4, Activin receptor type-1B (Homo sapiens) (UniProt P36896)
T4 sequence (whole entry): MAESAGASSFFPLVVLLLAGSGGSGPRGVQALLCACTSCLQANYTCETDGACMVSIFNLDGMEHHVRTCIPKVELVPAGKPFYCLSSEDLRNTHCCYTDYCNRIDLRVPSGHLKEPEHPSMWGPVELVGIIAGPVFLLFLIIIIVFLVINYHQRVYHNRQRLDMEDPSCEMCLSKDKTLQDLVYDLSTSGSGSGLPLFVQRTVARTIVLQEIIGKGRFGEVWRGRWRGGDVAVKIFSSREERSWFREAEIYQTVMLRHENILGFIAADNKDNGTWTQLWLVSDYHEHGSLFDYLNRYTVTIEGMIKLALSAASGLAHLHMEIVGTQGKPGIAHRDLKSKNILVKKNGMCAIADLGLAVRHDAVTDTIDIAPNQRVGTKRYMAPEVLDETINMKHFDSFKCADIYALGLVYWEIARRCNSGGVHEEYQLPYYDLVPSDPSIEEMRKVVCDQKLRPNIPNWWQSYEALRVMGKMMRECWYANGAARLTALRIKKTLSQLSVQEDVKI

Measured: residual activity

Sequence of ALK tyrosine kinase receptor (Homo sapiens), Q9UM73 [L1196M] (Q9UM73 whole entry L1196M, looked up): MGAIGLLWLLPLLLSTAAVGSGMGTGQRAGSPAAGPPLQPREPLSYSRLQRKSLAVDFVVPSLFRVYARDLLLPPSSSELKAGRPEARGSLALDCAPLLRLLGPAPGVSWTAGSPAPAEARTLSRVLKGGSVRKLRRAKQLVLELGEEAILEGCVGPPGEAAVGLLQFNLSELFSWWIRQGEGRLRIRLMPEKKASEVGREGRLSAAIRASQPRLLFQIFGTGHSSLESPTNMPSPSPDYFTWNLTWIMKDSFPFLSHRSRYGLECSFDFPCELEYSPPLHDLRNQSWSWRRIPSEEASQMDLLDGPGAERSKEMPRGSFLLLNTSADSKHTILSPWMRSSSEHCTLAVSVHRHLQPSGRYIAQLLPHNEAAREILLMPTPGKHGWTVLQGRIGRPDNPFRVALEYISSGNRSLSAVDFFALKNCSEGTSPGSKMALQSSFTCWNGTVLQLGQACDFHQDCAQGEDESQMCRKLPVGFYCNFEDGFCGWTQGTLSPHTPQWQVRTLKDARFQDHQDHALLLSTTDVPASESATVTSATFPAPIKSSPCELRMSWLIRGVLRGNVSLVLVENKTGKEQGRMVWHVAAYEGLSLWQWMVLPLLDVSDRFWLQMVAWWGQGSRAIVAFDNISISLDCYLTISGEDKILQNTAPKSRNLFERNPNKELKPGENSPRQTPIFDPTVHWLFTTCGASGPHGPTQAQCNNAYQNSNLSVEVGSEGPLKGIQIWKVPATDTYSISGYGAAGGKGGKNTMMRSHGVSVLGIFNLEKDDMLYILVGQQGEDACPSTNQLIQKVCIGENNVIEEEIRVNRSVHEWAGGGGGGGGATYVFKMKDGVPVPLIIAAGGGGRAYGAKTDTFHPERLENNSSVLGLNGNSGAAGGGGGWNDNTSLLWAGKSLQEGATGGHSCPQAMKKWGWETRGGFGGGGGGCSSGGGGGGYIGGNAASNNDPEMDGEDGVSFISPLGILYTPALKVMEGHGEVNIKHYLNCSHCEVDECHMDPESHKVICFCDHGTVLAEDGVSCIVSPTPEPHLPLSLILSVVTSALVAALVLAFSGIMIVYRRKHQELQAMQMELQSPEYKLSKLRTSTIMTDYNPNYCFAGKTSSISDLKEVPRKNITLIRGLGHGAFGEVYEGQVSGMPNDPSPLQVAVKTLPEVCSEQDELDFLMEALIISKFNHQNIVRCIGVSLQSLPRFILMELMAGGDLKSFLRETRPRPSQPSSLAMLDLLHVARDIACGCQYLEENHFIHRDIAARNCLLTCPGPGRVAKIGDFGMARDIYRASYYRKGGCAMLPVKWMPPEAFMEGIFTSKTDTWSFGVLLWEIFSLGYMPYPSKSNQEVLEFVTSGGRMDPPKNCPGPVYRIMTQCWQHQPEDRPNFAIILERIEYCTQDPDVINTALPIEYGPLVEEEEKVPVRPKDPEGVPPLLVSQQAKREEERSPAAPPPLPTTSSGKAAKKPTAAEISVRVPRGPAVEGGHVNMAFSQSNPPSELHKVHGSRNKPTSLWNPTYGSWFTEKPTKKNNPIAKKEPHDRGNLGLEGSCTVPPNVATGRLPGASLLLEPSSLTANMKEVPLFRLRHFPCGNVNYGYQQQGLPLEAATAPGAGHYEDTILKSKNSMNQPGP
Sequence of Serine/threonine-protein kinase tousled-like 2 (Homo sapiens) (Q86UE8 whole entry, looked up): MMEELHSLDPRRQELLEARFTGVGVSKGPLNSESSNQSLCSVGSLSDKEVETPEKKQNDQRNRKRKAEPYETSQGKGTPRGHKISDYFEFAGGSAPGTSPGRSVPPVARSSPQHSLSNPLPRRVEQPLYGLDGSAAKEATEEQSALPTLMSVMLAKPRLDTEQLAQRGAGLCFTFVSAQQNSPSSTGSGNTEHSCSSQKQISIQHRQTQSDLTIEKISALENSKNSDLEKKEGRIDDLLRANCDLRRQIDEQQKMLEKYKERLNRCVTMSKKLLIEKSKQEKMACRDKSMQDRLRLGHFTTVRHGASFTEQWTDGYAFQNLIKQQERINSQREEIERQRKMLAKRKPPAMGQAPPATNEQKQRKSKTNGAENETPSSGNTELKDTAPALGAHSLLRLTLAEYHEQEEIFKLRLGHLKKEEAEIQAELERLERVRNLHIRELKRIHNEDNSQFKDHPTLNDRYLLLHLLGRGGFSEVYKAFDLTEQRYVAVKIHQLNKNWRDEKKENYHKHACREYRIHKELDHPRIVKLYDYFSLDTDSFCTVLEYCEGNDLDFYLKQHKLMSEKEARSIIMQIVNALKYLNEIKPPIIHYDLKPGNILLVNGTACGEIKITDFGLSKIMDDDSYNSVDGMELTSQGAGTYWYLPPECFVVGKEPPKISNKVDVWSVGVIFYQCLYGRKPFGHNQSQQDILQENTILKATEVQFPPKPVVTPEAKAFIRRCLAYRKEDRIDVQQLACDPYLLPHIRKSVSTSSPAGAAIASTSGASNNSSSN
Sequence of High affinity nerve growth factor receptor (Homo sapiens) (P04629 33-796 limits assumed): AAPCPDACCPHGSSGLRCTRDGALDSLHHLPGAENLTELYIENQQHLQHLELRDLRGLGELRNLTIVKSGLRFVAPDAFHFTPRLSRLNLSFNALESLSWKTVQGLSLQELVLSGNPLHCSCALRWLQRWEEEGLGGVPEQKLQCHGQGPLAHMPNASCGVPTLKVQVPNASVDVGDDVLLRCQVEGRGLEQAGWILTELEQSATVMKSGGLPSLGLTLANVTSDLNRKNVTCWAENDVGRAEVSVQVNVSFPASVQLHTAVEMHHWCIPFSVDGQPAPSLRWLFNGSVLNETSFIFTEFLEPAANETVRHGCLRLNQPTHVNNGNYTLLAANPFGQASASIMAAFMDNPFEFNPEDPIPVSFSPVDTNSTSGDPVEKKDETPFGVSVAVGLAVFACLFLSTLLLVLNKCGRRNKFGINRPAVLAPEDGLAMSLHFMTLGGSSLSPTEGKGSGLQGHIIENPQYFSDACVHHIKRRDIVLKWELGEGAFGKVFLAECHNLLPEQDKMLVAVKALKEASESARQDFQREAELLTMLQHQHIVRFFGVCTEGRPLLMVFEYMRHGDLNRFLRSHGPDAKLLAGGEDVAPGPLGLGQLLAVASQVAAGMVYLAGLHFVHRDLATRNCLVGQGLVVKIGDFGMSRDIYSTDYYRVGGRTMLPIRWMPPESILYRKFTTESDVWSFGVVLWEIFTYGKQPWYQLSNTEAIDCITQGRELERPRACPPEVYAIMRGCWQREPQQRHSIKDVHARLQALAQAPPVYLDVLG
Sequence of Homeodomain-interacting protein kinase 3 (Homo sapiens) (Q9H422 whole entry, looked up): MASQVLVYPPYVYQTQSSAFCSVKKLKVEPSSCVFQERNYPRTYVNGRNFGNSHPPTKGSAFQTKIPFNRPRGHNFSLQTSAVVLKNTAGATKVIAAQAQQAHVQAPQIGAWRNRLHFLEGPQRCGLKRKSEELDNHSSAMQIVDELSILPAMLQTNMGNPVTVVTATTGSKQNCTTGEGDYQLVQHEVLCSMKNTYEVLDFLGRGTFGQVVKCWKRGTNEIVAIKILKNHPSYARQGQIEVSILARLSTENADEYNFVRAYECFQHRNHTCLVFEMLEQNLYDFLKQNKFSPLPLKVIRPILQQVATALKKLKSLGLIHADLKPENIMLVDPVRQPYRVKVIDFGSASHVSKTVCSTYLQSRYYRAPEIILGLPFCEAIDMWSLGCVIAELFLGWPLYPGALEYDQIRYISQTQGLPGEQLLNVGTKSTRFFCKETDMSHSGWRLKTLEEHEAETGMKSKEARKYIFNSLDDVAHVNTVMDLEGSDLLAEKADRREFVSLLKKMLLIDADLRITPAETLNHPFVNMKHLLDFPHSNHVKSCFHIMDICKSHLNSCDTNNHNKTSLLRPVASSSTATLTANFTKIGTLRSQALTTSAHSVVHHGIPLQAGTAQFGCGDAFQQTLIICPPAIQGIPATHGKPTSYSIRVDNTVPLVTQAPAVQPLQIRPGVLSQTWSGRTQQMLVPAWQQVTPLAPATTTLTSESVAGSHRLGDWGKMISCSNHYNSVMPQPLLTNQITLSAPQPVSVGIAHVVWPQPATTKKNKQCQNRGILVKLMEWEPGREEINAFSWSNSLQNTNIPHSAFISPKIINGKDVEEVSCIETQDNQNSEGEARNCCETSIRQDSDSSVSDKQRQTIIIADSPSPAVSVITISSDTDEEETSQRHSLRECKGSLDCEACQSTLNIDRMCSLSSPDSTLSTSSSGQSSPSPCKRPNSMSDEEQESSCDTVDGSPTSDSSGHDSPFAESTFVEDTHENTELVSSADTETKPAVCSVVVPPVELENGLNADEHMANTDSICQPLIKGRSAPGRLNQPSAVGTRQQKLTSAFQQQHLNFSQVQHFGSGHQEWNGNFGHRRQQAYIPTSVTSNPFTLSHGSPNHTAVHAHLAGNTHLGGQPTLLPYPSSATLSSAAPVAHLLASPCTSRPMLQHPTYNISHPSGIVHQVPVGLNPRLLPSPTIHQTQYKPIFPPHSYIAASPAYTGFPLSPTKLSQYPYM
Sequence of ALK tyrosine kinase receptor (Homo sapiens), Q9UM73 [C1156Y] (Q9UM73 whole entry C1156Y, looked up, the tested form may be a part): as the sequence (Q9UM73 whole entry L1196M, looked up) above, with C1156Y, M1196L counted along it

Cc1nc(C2CCN(C(=O)c3ccc(OC(F)(F)F)cc3N)CC2)c2ncc(N3CCN(C)CC3)cc2n1 [BAY-693]
inactive: [1] 100% | [2] 92% | [3] 100% | [4] 98% | [5] 100% | [6] 100% | [7] 96% | [8] 85% | [9] 86%

CN1CCN(c2cnc3c(C4CCN(C(=O)c5ccc(OC(F)(F)F)cc5N)CC4)ncnc3c2)CC1 [BAY-885]
inactive: [1] 100% | [2] 100% | [3] 100% | [4] 100% | [5] 100% | [6] 89% | [7] 100% | [8] 100% | [9] 79%
